# ChEMBL document CHEMBL5393454, “Compounds inhibitors of mettl3” (2022)
# Target: N6-adenosine-methyltransferase catalytic subunit (Homo sapiens, UniProt Q86U44)
# Test: Inhibition of full length His-tagged METTL3 (unknown origin) co-expressed with full length FLAG-tagged METTL14 in baculovirus expression system preincubated using 5'P-uacacucgaucuggacuaaagcugcuc-3' as substrate and SAM as cosubstrate pre-incubated for 10 mins followed by addition of substrates and measured after 60 mins by RapidFire mass spectrometry (RF/MS) analysis
# N6-adenosine-methyltransferase catalytic subunit, sequence (Q86U44 whole entry): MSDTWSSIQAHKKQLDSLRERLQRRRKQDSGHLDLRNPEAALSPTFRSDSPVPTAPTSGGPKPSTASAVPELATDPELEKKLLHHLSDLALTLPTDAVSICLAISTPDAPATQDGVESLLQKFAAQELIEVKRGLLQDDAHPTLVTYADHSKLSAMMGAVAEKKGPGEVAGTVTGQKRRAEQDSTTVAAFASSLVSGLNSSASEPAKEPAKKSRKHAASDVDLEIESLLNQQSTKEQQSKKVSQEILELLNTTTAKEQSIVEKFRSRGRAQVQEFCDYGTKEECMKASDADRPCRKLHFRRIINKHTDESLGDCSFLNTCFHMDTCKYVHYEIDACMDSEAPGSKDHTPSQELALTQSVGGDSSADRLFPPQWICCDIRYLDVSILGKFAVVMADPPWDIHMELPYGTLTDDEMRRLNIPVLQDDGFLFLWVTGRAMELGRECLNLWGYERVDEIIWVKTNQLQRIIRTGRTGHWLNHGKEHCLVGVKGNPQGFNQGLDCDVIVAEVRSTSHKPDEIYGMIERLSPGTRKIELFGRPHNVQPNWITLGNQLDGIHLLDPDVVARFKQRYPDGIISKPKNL
row,IC50 [nM],Compound
1,22.7,Nc1ncnc2c1c(Br)cn2[C@@H]1O[C@H](/C=C/CCCNCC2CC(F)(F)C2)[C@@H](O)[C@H]1O
2,< 6,Nc1ncnc2c1c(Br)cn2[C@@H]1O[C@H](/C=C/CCCNCC23CC(F)(C2)C3)[C@@H](O)[C@H]1O
3,< 6,Nc1ncnc2c1c(Br)cn2[C@@H]1C[C@H](c2ccc3cc(CNCC45CC(F)(C4)C5)[nH]c3c2)[C@@H](O)[C@H]1O
